Assay results taken from PubChem BioAssay (NCI).
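The compound was tested at five concentrations on cells cultured in 96-well plates, with a 48-hour exposure period. Here, GI50 denotes the concentration required for 50% inhibition of growth. TGI marks complete inhibition of growth.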

Experiments:
Assay in all cases: growth of human tumour cells (NCI), 48 h
[1] = system: DMS 114 small cell lung
[2] = system: EKVX NSCLC
[3] = system: HL-60(TB) leukemia
[4] = system: KM12 colon
[5] = system: MCF7 breast
[6] = system: NCI/ADR-RES ovarian
[7] = system: RXF 393 renal
[8] = system: SK-OV-3 ovarian
[9] = system: UACC-62 melanoma
[10] = system: TK-10 renal

SMILES | TGI [1] | TGI [2] | TGI [3] | TGI [4] | TGI [5] | TGI [6] | TGI [7] | TGI [8] | TGI [9] | TGI [10] | GI50 [2] | GI50 [3] | GI50 [4] | GI50 [5] | GI50 [6] | GI50 [7] | GI50 [10] | GI50 [9] | GI50 [8]
Nc1ncnc2c1ncn2C1CCC(CO)O1 (stereo unspecified) | > 74.1 µM | 100 µM | > 100 µM | > 100 µM | > 100 µM | > 77.4 µM | > 100 µM | > 100 µM | > 100 µM |  |  |  |  |  |  |  |  |  | 
CCOP(=O)(OCC)C(Cc1ccc(OC)c(OC)c1)N=C(c1ccccc1)c1ccccc1 (stereo unspecified) |  |  | 51.9 µM | > 100 µM | 55.5 µM | > 100 µM | > 100 µM |  | > 100 µM | > 100 µM |  |  |  |  |  |  |  |  | 
CC(C)=CCc1c(C)cc2cc3c(c(O)c2c1O)C(O)=CC(=O)C3(CC=C(C)C)C/C=C(\C)CO (stereo unspecified) | 82 µM | 70.7 µM | 51.3 µM | 81.7 µM | 84.3 µM | 102 µM | 63.4 µM | 71.4 µM | 67.5 µM |  |  |  |  |  |  |  |  |  | 
CC[C@@H](C(=O)[C@@H](C)[C@@H](O)[C@H](C)CCc1ccc(C)c(O)c1C(=O)O)[C@H]1O[C@](CC)([C@H]2CC[C@](O)(CC)[C@H](C)O2)C[C@@H]1C | 4.15 µM | 9 µM | 1.54 µM | 9.57 µM |  |  |  | 10.2 µM | 4.04 µM | 12.6 µM |  |  |  |  |  |  |  |  | 
COc1c2c(cc3c(CCc4ccccc4)cc(=O)oc13)CCC(C)(C)O2 | > 100 µM | > 100 µM | > 100 µM | > 100 µM |  |  | > 100 µM | > 100 µM | > 100 µM | > 100 µM |  |  |  |  |  |  |  |  | 
CCOc1ccc2c(ccc(/C=C\c3cc(C)c4cccnc4c3O)[n+]2C)c1 |  | 15.2 µM | 1.05 µM | 22.7 µM |  | > 100 µM | 18.9 µM | 10.4 µM | 11.4 µM | 6 µM |  |  |  |  |  |  |  |  | 
O=C1CN2C(Cl)(Cl)C2(c2ccccc2)c2cc(Cl)ccc2N1CC(F)(F)F (stereo unspecified) | 66.6 µM | > 100 µM |  | 42.2 µM |  |  | 63.6 µM | > 100 µM | > 100 µM | > 100 µM |  |  |  |  |  |  |  |  | 
CCOc1ccc(/C=C/[N+](=O)[O-])cc1 |  | 81.7 µM | 49 µM | 15.4 µM | 13.5 µM | > 100 µM | 3.56 µM |  | 27.2 µM | 24.7 µM | 25.7 µM | 8.83 µM | 4.51 µM | 3.4 µM | 33 µM | 1.79 µM | 12 µM | 13.8 µM | 
[C-]#[O+].[Cl][Sn]([Cl])[Cl].[Cl][Sn]([Cl])[Cl].[Pt].c1ccncc1 |  | > 100 µM | > 74 µM | > 100 µM | > 100 µM | > 100 µM | > 100 µM | > 100 µM | > 100 µM |  |  |  |  | > 100 µM | > 100 µM |  |  |  | 
O=C(O)c1cc(=O)[nH]c(=S)[nH]1 |  | > 100 µM | > 100 µM | > 100 µM | > 100 µM | > 100 µM | > 100 µM | > 100 µM | > 100 µM | > 100 µM |  |  |  |  |  |  |  |  | 
O=C(Nc1nc2ccc([N+](=O)[O-])cc2[n+]([O-])n1)C(F)(F)F |  |  | 34.9 µM | > 100 µM | 52.4 µM | > 100 µM | > 100 µM |  | 53.1 µM | > 100 µM |  |  |  |  |  |  |  |  | 
CC(C)=CC(=O)OC1C2C(C)C(=O)OC2C(O)C(C)C2C=CC(=O)C21C (stereo unspecified) | 7.19 µM | 7.88 µM | 3.4 µM | 9.31 µM | 11.1 µM | 32.5 µM | 3.68 µM | 15.3 µM | 4.64 µM |  |  |  |  |  |  |  |  |  | 
CCCCN(CCCC)CCCCNc1c(C)cnc2cc(Cl)ccc12 | 56.9 µM | 46.3 µM |  | > 100 µM |  |  | 31 µM |  |  | 96 µM |  |  |  |  |  |  |  |  | 
Cc1ccc(S(=O)(=O)Oc2cc(S(=O)(=O)O)cc3cc(S(=O)(=O)O)cc(N)c23)cc1 |  | > 100 µM | > 100 µM | > 100 µM | > 100 µM | > 100 µM | > 100 µM | > 100 µM | > 100 µM | > 100 µM |  |  |  |  |  |  |  |  | 
CCN(CC)CCCC(Nc1c2ccc(Cl)cc2nc2ccc(OC)cc12)c1ccc(F)cc1 (stereo unspecified) |  | 8.48 µM | 4.02 µM | 3.67 µM | 3.62 µM | 5.75 µM | 3.13 µM | 15.9 µM | 3.25 µM | 3.58 µM | 2.08 µM | 1.91 µM | 2 µM | 1.64 µM | 2.38 µM | 1.51 µM | 1.81 µM | 1.71 µM | 4.33 µM
CN1C2C=C(c3ccccc3)CC1CC2 (stereo unspecified) |  | > 100 µM | > 100 µM | > 100 µM |  |  | > 100 µM | > 100 µM | > 100 µM | > 100 µM |  |  |  |  |  |  |  |  | 
O=C(Nc1ccc(Cl)cc1)/C(Cc1cccc[n+]1[O-])=N\Nc1ccc([N+](=O)[O-])cc1[N+](=O)[O-] | > 100 µM | > 100 µM | > 100 µM | > 100 µM |  |  | > 100 µM | > 100 µM | > 100 µM | > 100 µM |  |  |  |  |  |  |  |  | 
c1ccc2c(c1)nc1n2CSC1 | > 100 µM | > 100 µM | > 100 µM |  |  |  |  | > 100 µM | > 100 µM | > 100 µM |  |  |  |  |  |  |  |  | 
CC1=C[C@]2(CC(C)C3C(CC4(C)C5CCC6C(C)(C)C(=O)CC[C@@]67C[C@@]57CC[C@]34C)O2)OC1=O (stereo partly specified) | 77.1 µM | > 100 µM | > 100 µM | > 100 µM |  |  | 21.8 µM |  |  | 79 µM |  |  |  |  |  |  |  |  | 
CN1CCN(Cc2ccc(NC(=O)c3ccc(C#N)c(C#Cc4cnc(N)c5ncccc45)c3)cc2C(F)(F)F)CC1 |  | 89.7 µM | > 100 µM |  |  |  |  | 44.6 µM | 3.26 µM |  | 19.3 µM | 14.5 µM |  |  |  |  |  | 1.73 µM | 19.3 µM
CC(=O)[O-].CC(=O)[O-].[NH2-].[Pt+2].c1ccncc1 |  |  | 43.7 µM | > 100 µM | 65.9 µM | > 100 µM | 64.6 µM | > 100 µM | > 100 µM | > 100 µM |  |  |  | 19.4 µM | 80 µM |  |  |  | 
O=C1Nc2ccccc2Nc2nc3cccccc-3c21 | > 100 µM | > 100 µM | > 100 µM | > 100 µM |  |  | > 100 µM | > 100 µM | > 100 µM | > 100 µM |  |  |  |  |  |  |  |  | 
CC1(C)CCc2cc3c(-c4ccccc4)cc(=O)oc3cc2O1 | > 100 µM | > 100 µM | > 100 µM |  |  |  |  | > 100 µM | > 100 µM | > 100 µM |  |  |  |  |  |  |  |  | 
Cc1nc2ccccc2c(=O)n1CC(=O)O | > 100 µM | > 100 µM | > 100 µM | > 100 µM | > 100 µM | > 100 µM | > 100 µM | > 100 µM | > 100 µM |  |  |  |  |  |  |  |  |  | 
